Reference: patent US20210127673A1, “HERBICIDES” (SYNGENTA PARTICIPATIONS AG, priority 2016, published 2021)

Columns and labels:
Type in all cases: in vivo
Conditions in all cases: 1000 g/ha, evaluated after 13 days
[1] = system: Triticum aestivium (TRZAW); experiment: Post-emergence herbicidal activity, Triticum aestivium; design: key: 5=total damage to plant; 0=no damage to plant
In short: (§1)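 Glasshouse post-emergence spray test: seedlings treated at 8 days after sowing with compound formulated in 50:50 acetone/water plus 0.5% Tween 20, then grown on at 24/16 °C, 14 h light, 65% humidity. Injury rated 13 days later, 0 = no damage, 5 = total damage.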

[2] = system: Alopecurus myosuroides (ALOMY); experiment: Pre-emergence herbicidal activity, Alopecurus myosuroides; design: key: 5=total damage to plant; 0=no damage to plant
In short: (§2)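 Seeds sown in standard soil in pots, grown one day in a glasshouse (24/16 °C day/night, 14 h light, 65% humidity), then sprayed pre-emergence with compound in acetone/water (50:50) containing 0.5% Tween 20. Plants were scored after 13 days on a 0–5 scale (5 = total damage, 0 = none).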

[3] = system: Echinochloa crus-galli (ECHCG); experiment: Pre-emergence herbicidal activity, Echinochloa crus-galli
In short: as §2

[4] = system: Alopecurus myosuroides (ALOMY); experiment: Post-emergence herbicidal activity, Alopecurus myosuroides; design: key: 5=total damage to plant; 0=no damage to plant
In short: as §1

Avena fatua (AVEFA) [5] = experiment: Post-emergence herbicidal activity, Avena fatua
In short: as §1

Setaria faberi (SETFA) [6] = experiment: Post-emergence herbicidal activity, Setaria faberi; design: key: 5=total damage to plant; 0=no damage to plant
In short: as §1

Setaria faberi (SETFA) [7] = experiment: Pre-emergence herbicidal activity, Setaria faberi; design: key: 5=total damage to plant; 0=no damage to plant
In short: as §2

Avena fatua (AVEFA) [8] = experiment: Pre-emergence herbicidal activity, Avena fatua; design: key: 5=total damage to plant; 0=no damage to plant
In short: as §2

[9] = system: Echinochloa crus-galli (ECHCG); experiment: Post-emergence herbicidal activity, Echinochloa crus-galli; design: key: 5=total damage to plant; 0=no damage to plant
In short: as §1

Lolium perenne (LOLPE) [10] = experiment: Post-emergence herbicidal activity, Lolium perenne
In short: as §1

Lolium perenne (LOLPE) [11] = experiment: Pre-emergence herbicidal activity, Lolium perenne; design: key: 5=total damage to plant; 0=no damage to plant
In short: as §2

[12] = system: Triticum aestivium (TRZAW); experiment: Pre-emergence herbicidal activity, Triticum aestivium; design: key: 5=total damage to plant; 0=no damage to plant
In short: as §2

| SMILES | Control of TRAZW after post-emergence application (score 0-5) [1] | Control of ALOMY after pre-emergence application (score 0-5) [2] | Control of ECHCG after pre-emergence application (score 0-5) [3] | Control of ALOMY after post-emergence application (score 0-5) [4] | Control of AVEFA after post-emergence application (score 0-5) (Avena fatua (AVEFA) [5]) | Control of SETFA after post-emergence application (score 0-5) (Setaria faberi (SETFA) [6]) | Control of SETFA after pre-emergence application (score 0-5) (Setaria faberi (SETFA) [7]) | Control of AVEFA after pre-emergence application (score 0-5) (Avena fatua (AVEFA) [8]) | Control of ECHCG after post-emergence application (score 0-5) [9] | Control of LOLPE after post-emergence application (score 0-5) (Lolium perenne (LOLPE) [10]) | Control of LOLPE after pre-emergence application (score 0-5) (Lolium perenne (LOLPE) [11]) | Control of TRAZW after pre-emergence application (score 0-5) [12] |
| --- | --- | --- | --- | --- | --- | --- | --- | --- | --- | --- | --- | --- |
| O=C1NCCN1c1ccc(-c2cncc(F)c2)nc1C(F)(F)F [Compound B64] | 0 | 0 | 1 | 0 | 3 | 4 | 2 | 0 | 4 | 1 | 0 | 0 |
| CSc1cncc(-c2ccc(NC(=O)OC(C)(C)C)c(C)n2)c1 [Compound B12] | 1 | 1 | 1 | 1 | 2 | 3 | 3 | 1 | 2 | 2 | 1 | 0 |
| C=CCN(C(=O)OC(C)(C)C)c1ccc(-c2cncc(F)c2)nc1C(F)(F)F [Compound B9] | 1 | 1 | 3 | 1 | 3 | 5 | 5 | 2 | 5 | 4 | 2 | 0 |
| Cc1cc(CNC(=O)Nc2ccc(-c3cncc(F)c3)nc2C(F)(F)F)c(C(F)(F)F)o1 [Compound B79] | 0 | 0 | 2 | 0 | 2 | 2 | 1 | 0 | 1 | 1 | 1 | 0 |
| O=C(NOCC(F)F)Nc1ccc(-c2cncc(F)c2)nc1C(F)(F)F [Compound B110] | 0 | 0 | 3 | 0 | 3 | 4 | 4 | 0 | 3 | 1 | 0 | 0 |
| O=C(Nc1ccc(-c2cncc(F)c2)nc1C(F)(F)F)N1CCOCC1 [Compound B39] | 1 | 0 | 4 | 1 | 4 | 5 | 5 | 3 | 5 | 3 | 1 | 0 |
